{"source": "the CheMixHub viscosity set", "note": "“And” between values parts separate entries of the source, which are not always exact repeats. Identical values can stand only once. ± gives the uncertainty stated by the source."}
{"smiles": "NCCCO", "values": [{"measurement": "viscosity", "setting": "303.15 K, 101 kPa", "result": "24.12 ± 0.43", "unit": "mPa·s"}, {"measurement": "viscosity", "setting": "308.15 K, 101 kPa", "result": "18.98 ± 0.34", "unit": "mPa·s"}, {"measurement": "viscosity", "setting": "318.15 K, 101 kPa", "result": "12.35 ± 0.51", "unit": "mPa·s"}]}
{"smiles": "CCC(C)O", "note": "(stereo not given)", "values": [{"measurement": "viscosity", "setting": "293.15 K, 100 kPa", "result": "4.036 ± 0.012", "unit": "mPa·s"}, {"measurement": "viscosity", "setting": "293.15 K, 101.33 kPa", "result": "3.647 ± 0.032", "unit": "mPa·s"}, {"measurement": "viscosity", "setting": "298.15 K, 101.33 kPa", "result": "2.925 ± 0.035 mPa·s and 2.857 ± 0.025 mPa·s"}, {"measurement": "viscosity", "setting": "303 K, 101.33 kPa", "result": "2.195 ± 0.23", "unit": "mPa·s"}, {"measurement": "viscosity", "setting": "303.15 K, 101 kPa", "result": "2.742 ± 0.022 mPa·s and 2.27 ± 0.6 mPa·s and 2.741 ± 0.032 mPa·s"}, {"measurement": "viscosity", "setting": "303.15 K, 101.3 kPa", "result": "3.177 ± 0.036", "unit": "mPa·s"}, {"measurement": "viscosity", "setting": "303.15 K, 101.33 kPa", "result": "2.417 ± 0.029 mPa·s and 2.741 ± 0.032 mPa·s"}, {"measurement": "viscosity", "setting": "308.15 K, 101 kPa", "result": "2 ± 0.6 mPa·s and 2.179 ± 0.034 mPa·s"}, {"measurement": "viscosity", "setting": "308.15 K, 101.3 kPa", "result": "2.582 ± 0.016", "unit": "mPa·s"}, {"measurement": "viscosity", "setting": "308.15 K, 101.33 kPa", "result": "2.034 ± 0.2 mPa·s and 2.011 ± 0.024 mPa·s"}, {"measurement": "viscosity", "setting": "318.15 K, 101 kPa", "result": "1.58 ± 0.6 mPa·s and 1.566 ± 0.025 mPa·s"}, {"measurement": "viscosity", "setting": "318.15 K, 101.33 kPa", "result": 1.62, "unit": "mPa·s"}, {"measurement": "viscosity", "setting": "323.15 K, 100 kPa", "result": "1.626 ± 0.0049", "unit": "mPa·s"}, {"measurement": "viscosity", "setting": "323.15 K, 101 kPa", "result": "1.41 ± 0.6", "unit": "mPa·s"}]}
{"smiles": "OC1COCOC1", "values": [{"measurement": "viscosity", "setting": "298.15 K, 101 kPa", "result": "13.11 ± 0.29", "unit": "mPa·s"}, {"measurement": "viscosity", "setting": "308.15 K, 101 kPa", "result": "8.963 ± 0.2", "unit": "mPa·s"}, {"measurement": "viscosity", "setting": "318.15 K, 101 kPa", "result": "6.508 ± 0.15 mPa·s and 6.58 ± 0.15 mPa·s"}]}
{"smiles": "O=S1(=O)CCCC1", "values": [{"measurement": "viscosity", "setting": "298.15 K, 101.3 kPa", "result": "10.28 ± 0.13", "unit": "mPa·s"}, {"measurement": "viscosity", "setting": "308.15 K, 100 kPa", "result": "8.795 ± 0.17", "unit": "mPa·s"}, {"measurement": "viscosity", "setting": "308.15 K, 101.3 kPa", "result": "8.258 ± 0.11", "unit": "mPa·s"}, {"measurement": "viscosity", "setting": "318.15 K, 101 kPa", "result": "7.18 ± 0.72 mPa·s and 7.17 ± 0.74 mPa·s and 6.912 ± 0.037 mPa·s"}, {"measurement": "viscosity", "setting": "318.15 K, 101.3 kPa", "result": "6.256 ± 0.085", "unit": "mPa·s"}, {"measurement": "viscosity", "setting": "323.15 K, 101.33 kPa", "result": "6.346 ± 0.032", "unit": "mPa·s"}]}
{"smiles": "c1ccc2sccc2c1", "values": [{"measurement": "viscosity", "setting": "308.15 K, 101 kPa", "result": "2.94 ± 0.4", "unit": "mPa·s"}, {"measurement": "viscosity", "setting": "318.15 K, 101 kPa", "result": "2.06 ± 0.13", "unit": "mPa·s"}]}
{"smiles": "ClC(Cl)(Cl)c1ccccc1", "values": [{"measurement": "viscosity", "setting": "298.15 K, 101.33 kPa", "result": "2.18 ± 0.019", "unit": "mPa·s"}]}
{"smiles": "CCC[n+]1ccn(C)c1C.O=S(=O)([N-]S(=O)(=O)C(F)(F)F)C(F)(F)F", "values": [{"measurement": "viscosity", "setting": "298.15 K, 101 kPa", "result": "85.6 ± 2.5", "unit": "mPa·s"}]}
{"smiles": "CC(O)CC(C)(C)O", "note": "(stereo not given)", "values": [{"measurement": "viscosity", "setting": "308.15 K, 101 kPa", "result": "20.29 ± 2 mPa·s and 20.37 ± 2 mPa·s"}, {"measurement": "viscosity", "setting": "318.15 K, 101 kPa", "result": "17.79 ± 1.8 mPa·s and 17.73 ± 1.8 mPa·s"}]}
{"smiles": "Cc1cccc(C)c1", "values": [{"measurement": "viscosity", "setting": "293.15 K, 100 kPa", "result": "0.614 ± 0.03", "unit": "mPa·s"}, {"measurement": "viscosity", "setting": "293.15 K, 101 kPa", "result": "0.5522 ± 0.0085 mPa·s and 0.627 ± 0.013 mPa·s"}, {"measurement": "viscosity", "setting": "298.15 K, 101 kPa", "result": "0.5821 ± 0.0073 mPa·s and 0.5848 ± 0.016 mPa·s"}, {"measurement": "viscosity", "setting": "298.15 K, 101.3 kPa", "result": "0.586 ± 0.016 mPa·s and 0.58 ± 0.016 mPa·s"}, {"measurement": "viscosity", "setting": "303 K, 101 kPa", "result": "0.5456 ± 0.0046 mPa·s and 0.5455 ± 0.0046 mPa·s"}, {"measurement": "viscosity", "setting": "303.15 K, 101.3 kPa", "result": "0.543 ± 0.015 mPa·s and 0.548 ± 0.015 mPa·s and 0.5471 ± 0.015 mPa·s"}, {"measurement": "viscosity", "setting": "303.15 K, 101.33 kPa", "result": "0.555 ± 0.006", "unit": "mPa·s"}, {"measurement": "viscosity", "setting": "308.15 K, 100 kPa", "result": "0.4712 ± 0.057", "unit": "mPa·s"}, {"measurement": "viscosity", "setting": "308.15 K, 101 kPa", "result": "0.5329 ± 0.0055", "unit": "mPa·s"}, {"measurement": "viscosity", "setting": "308.15 K, 101.3 kPa", "result": "0.519 ± 0.015", "unit": "mPa·s"}, {"measurement": "viscosity", "setting": "308.15 K, 101.33 kPa", "result": "0.5218 ± 0.0067 mPa·s and 0.542 ± 0.004 mPa·s and 0.527 ± 0.005 mPa·s"}, {"measurement": "viscosity", "setting": "308.5 K, 101 kPa", "result": "0.547 ± 0.015", "unit": "mPa·s"}, {"measurement": "viscosity", "setting": "313 K, 101 kPa", "result": "0.4931 ± 0.0042 mPa·s and 0.492 ± 0.0042 mPa·s"}, {"measurement": "viscosity", "setting": "313.15 K, 100 kPa", "result": "0.492 ± 0.03", "unit": "mPa·s"}, {"measurement": "viscosity", "setting": "313.15 K, 101 kPa", "result": "0.4463 ± 0.0073 mPa·s and 0.522 ± 0.014 mPa·s and 0.4923 ± 0.0091 mPa·s"}, {"measurement": "viscosity", "setting": "313.15 K, 101.3 kPa", "result": "0.49 ± 0.014", "unit": "mPa·s"}, {"measurement": "viscosity", "setting": "323 K, 101 kPa", "result": "0.4487 ± 0.0039", "unit": "mPa·s"}, {"measurement": "viscosity", "setting": "323.15 K, 101 kPa", "result": "0.3949 ± 0.0068 mPa·s and 0.4488 ± 0.013 mPa·s"}, {"measurement": "viscosity", "setting": "323.15 K, 101.3 kPa", "result": "0.439 ± 0.013", "unit": "mPa·s"}]}
{"smiles": "Cc1ccccc1N", "values": [{"measurement": "viscosity", "setting": "298.15 K, 100 kPa", "result": "3.718 ± 0.079", "unit": "mPa·s"}, {"measurement": "viscosity", "setting": "298.15 K, 101 kPa", "result": "3.645 ± 0.097", "unit": "mPa·s"}, {"measurement": "viscosity", "setting": "303.15 K, 100 kPa", "result": "3.258 ± 0.065 mPa·s and 3.258 ± 0.07 mPa·s and 3.26 ± 0.1 mPa·s"}, {"measurement": "viscosity", "setting": "303.15 K, 101 kPa", "result": "3.1 ± 0.08", "unit": "mPa·s"}, {"measurement": "viscosity", "setting": "308.15 K, 100 kPa", "result": "2.824 ± 0.064 mPa·s and 2.824 ± 0.061 mPa·s and 2.82 ± 0.09 mPa·s"}, {"measurement": "viscosity", "setting": "313.15 K, 100 kPa", "result": "2.487 ± 0.063 mPa·s and 2.487 ± 0.053 mPa·s and 2.49 ± 0.08 mPa·s"}, {"measurement": "viscosity", "setting": "318.15 K, 100 kPa", "result": "2.153 ± 0.063 mPa·s and 2.153 ± 0.047 mPa·s and 2.15 ± 0.07 mPa·s"}]}
{"smiles": "Cc1ccc(O)cc1", "values": [{"measurement": "viscosity", "setting": "293.15 K, 101 kPa", "result": "18.95 ± 0.32", "unit": "mPa·s"}, {"measurement": "viscosity", "setting": "298.15 K, 101 kPa", "result": "13.93 ± 0.99 mPa·s and 14.74 ± 0.24 mPa·s"}, {"measurement": "viscosity", "setting": "313.15 K, 101.3 kPa", "result": "6.661 ± 0.081", "unit": "mPa·s"}, {"measurement": "viscosity", "setting": "318.15 K, 101 kPa", "result": "5.795 ± 0.48 mPa·s and 5.292 ± 0.039 mPa·s (2×)"}, {"measurement": "viscosity", "setting": "323.15 K, 101.3 kPa", "result": "4.48 ± 0.056", "unit": "mPa·s"}, {"measurement": "viscosity", "setting": "323.15 K, 101.33 kPa", "result": "4.62 ± 0.046", "unit": "mPa·s"}]}
{"smiles": "CCCCn1cc[n+](C)c1.F[B-](F)(F)F", "values": [{"measurement": "viscosity", "setting": "293.15 K, 101 kPa", "result": "133.5 ± 4.5 mPa·s and 127.6 ± 8.5 mPa·s"}, {"measurement": "viscosity", "setting": "293.15 K, 101.33 kPa", "result": "125.3 ± 19", "unit": "mPa·s"}, {"measurement": "viscosity", "setting": "295.2 K, 101 kPa", "result": "122.9 ± 19", "unit": "mPa·s"}, {"measurement": "viscosity", "setting": "303.15 K, 101.33 kPa", "result": "81.85 ± 3.4 mPa·s and 87.7 ± 13 mPa·s"}, {"measurement": "viscosity", "setting": "308.15 K, 101 kPa", "result": "65 ± 1.3 mPa·s and 61.5 ± 7.9 mPa·s and 58.36 ± 3.5 mPa·s"}, {"measurement": "viscosity", "setting": "308.15 K, 101.33 kPa", "result": "63.57 ± 2.6 mPa·s and 72.5 ± 11 mPa·s"}, {"measurement": "viscosity", "setting": "313.15 K, 101 kPa", "result": "52.2 ± 1.1 mPa·s and 50.52 ± 0.74 mPa·s and 46.22 ± 2.8 mPa·s"}, {"measurement": "viscosity", "setting": "313.15 K, 101.33 kPa", "result": "57.7 ± 8.7", "unit": "mPa·s"}, {"measurement": "viscosity", "setting": "318.15 K, 101 kPa", "result": "42.6 ± 0.9 mPa·s and 38.72 ± 2.3 mPa·s"}, {"measurement": "viscosity", "setting": "323.15 K, 101 kPa", "result": "34.52 ± 0.56", "unit": "mPa·s"}, {"measurement": "viscosity", "setting": "323.15 K, 101.33 kPa", "result": "34.8 ± 1.4", "unit": "mPa·s"}]}
